Reference: patent publication US9670189B2, “Substituted condensed pyrimidine compounds” (GRÜNENTHAL GMBH, priority 2013, dated 2017)

What was measured:
human PDE4B1 = target: T1, human PDE4B1 (Homo sapiens, UniProt Q07343); assay: cAMP HTRF assay to determine the activity of hPDE4B1; type: biochemical; settings: for inhibition at 1 µM: 1 μM test concentration, human recombinant PDE4B1, cAMP 40 nM, read-out: Inhibition at 1 μM test concentration [%] (Percentage inhibition of PDE4B)
T1 construct: host or cells: Sf9 cells
Experimental: cAMP HTRF® Assay to Determine the Activity of hPDE4B1
The inhibiting effect of the compounds on the enzyme activity of human PDE4B1 was measured by the quantification of 5′-adenosine monophosphate (5′-AMP), which is formed from 3′,5′-adenosine monophosphate (cAMP). Human recombinant enzyme, expressed in Sf9 cells, and the HTRF (homogeneous time-resolved fluorescence) detection method were used in the assay.
The test compound or water (control) was mixed with the human recombinant PDE4B1 enzyme (4.8 U) in a buffer consisting of 44.4 mM tris-HCl, 5.28 mM MgCl2, 2.64 mM DTT and 0.044% Tween 20 (pH 7.8). After adding the cAMP enzyme substrate (final concentration 40 nM) the mixture was incubated for 30 minutes at room temperature. Then a fluorescence acceptor (Dye2 marked with cAMP), a fluorescence donor (anti-cAMP antibody marked with a europium cryptate) and the non-specific phosphodiesterase inhibitor IBMX (3-isobutyl-1-methylxanthine; final concentration 1 mM) were added. After 60 minutes the fluorescence transfer, which correlates with the amount of remaining cAMP, was measured with a microplate reader (Rubystar, BMG) at λex=337 nm, λem=620 nm and λem=665 nm. The enzyme activity was calculated from the quotient formed from the measured signal at 665 nm and that at 620 nm. The result was expressed as the percentage inhibition of enzyme activity of the control (without PDE4 inhibitor) (literature: N. Saldou et al., Comparison of recombinant human PDE4 isoforms: interaction with substrate and inhibitors, Cell. Signal. Vol. 10, No. 6, 427-440, 1998). The enzyme was omitted for measurement of the basal control.

T1 sequence (Q07343 whole entry): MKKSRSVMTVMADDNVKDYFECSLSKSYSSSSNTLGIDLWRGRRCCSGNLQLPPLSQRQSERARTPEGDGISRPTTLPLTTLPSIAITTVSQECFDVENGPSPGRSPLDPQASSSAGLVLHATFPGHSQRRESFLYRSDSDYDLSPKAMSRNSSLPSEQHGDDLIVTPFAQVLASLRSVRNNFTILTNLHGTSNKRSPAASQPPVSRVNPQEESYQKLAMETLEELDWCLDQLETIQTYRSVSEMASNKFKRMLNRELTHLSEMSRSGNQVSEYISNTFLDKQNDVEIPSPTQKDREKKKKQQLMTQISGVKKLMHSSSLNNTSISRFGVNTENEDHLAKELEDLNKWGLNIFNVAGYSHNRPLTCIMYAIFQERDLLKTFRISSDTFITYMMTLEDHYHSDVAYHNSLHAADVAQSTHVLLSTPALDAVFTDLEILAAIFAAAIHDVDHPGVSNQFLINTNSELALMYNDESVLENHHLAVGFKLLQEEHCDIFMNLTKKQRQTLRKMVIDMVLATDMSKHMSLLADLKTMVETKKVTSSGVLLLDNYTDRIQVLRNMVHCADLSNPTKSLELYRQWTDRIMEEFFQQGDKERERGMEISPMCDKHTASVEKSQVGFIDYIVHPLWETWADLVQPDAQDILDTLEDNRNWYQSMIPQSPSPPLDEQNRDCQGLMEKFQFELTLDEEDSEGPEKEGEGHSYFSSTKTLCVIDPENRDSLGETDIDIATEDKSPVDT

What does the source list for COc1ccc(-c2nc3c(c(Oc4ccc(CC(=O)O)cc4)n2)CCC3)cc1Br [Compound 14, 2-(4-(2-(3-Bromo-4-methoxyphenyl)-6,7-dihydro-5H-cyclopenta[d]pyrimidin-4-yloxy)phenyl)acetic acid]?
inhibition at 1 µM (human PDE4B1): 68%; melting point: 263 to 264 °C

Which inhibition at 1 µM (human PDE4B1) does the source give for O=C(O)Cc1ccc(Oc2nc(-c3ccc(F)c(F)c3)nc3c2CCC3)cc1 [Compound 3, 2-(4-(2-(3,4-Difluorophenyl)-6,7-dihydro-5H-cyclopenta[d]pyrimidin-4-yloxy)phenyl)acetic acid] here?
Its inhibition at 1 µM is 30%.

Which inhibition at 1 µM (human PDE4B1) does the source give for O=C(O)Cc1ccc(Oc2nc(-c3ccc(Cl)s3)nc3c2CS(=O)(=O)C3)cc1 [Compound 21, 2-[4-[[2-(5-Chloro-thiophen-2-yl)-6,6-dioxo-5,7-dihydro-thieno[3,4-d]pyrimidin-4-yl]oxy]-phenyl]-acetic acid] here?
Its inhibition at 1 µM is 91%.

And the IC50 (human PDE4B1; measured according to the cAMP HTRF hPDE4B1 assay, read-out: PDE4B IC50)?
The IC50 was < 100 nM.

For CS(=O)(=O)c1ccc(-c2nc3c(c(Oc4ccc(CC(=O)O)cc4)n2)CCC3)s1 [Compound 52, 2-(4-(2-(5-(Methylsulfonyl)thiophen-2-yl)-6,7-dihydro-5H-cyclopenta[d]pyrimidin-4-yloxy)phenyl)acetic acid], which inhibition at 1 µM (human PDE4B1) is on record?
The inhibition at 1 µM was 53%.
